Test results published in article PMC8121805, “Discovery of first-in-class inhibitors of ASH1L histone methyltransferase with anti-leukemic activity” (Nature Communications, 2021).
Where “and” joins values, the source holds several entries; their conditions need not be identical. Equal values may be shown once. Entries after “also recorded” stand apart in the source; their conditions may differ.

Tests used:
[1] = tested on: MV4;11 leukemic blasts (human CD45+ cells) in NSG mice; experiment: Flow cytometry of hCD45+ cells in spleen and peripheral blood; type: in vivo, mouse
Procedure: Red blood cells were lysed with ACK lysis buffer (10-548E, Lonza). Up to 100,000 cells were washed in PBS (with 1% FBS) and stained with the anti–human CD45-BV421 antibody (563879, HI30, BD Biosciences) at 1:50 dilution for 30 min.

[2] = tested on: panel of diverse set of 30 kinases; experiment: Profiling with kinases; conditions: 25 µM, 1 h incubation
Source text: This study was outsourced to the Contract Research Organization.

[3] = tested on: human CD34+ cells from cord blood; experiment: Colony-forming assay with normal hematopoietic progenitor cells; conditions: 7 days
Procedure: The experiment was performed twice. […] Mean ± SD, n = 3 biological replicates. […] Two independent experiments were performed in triplicates. Representative graphs are shown. *P < 0.05; **P < 0.01; ****P < 0.0001; NS not significant.

NSD2 = NSD2 (Homo sapiens, UniProt O96028); experiment: HMT selectivity panel; conditions: NSD2, 50 µM compound
Source text: (§1) mM DTT and 0.01% Triton X-100 was used in experiments containing core histone.

G9a = G9a (Homo sapiens, UniProt Q96KQ7); experiment: HMT selectivity panel; conditions: 50 µM compound
Procedure: as §1
experiments containing nucleosome.
G9a 5 core histone 0.05 mg/mL 1
GLP 5 core histone 0.05 mg/mL 1

GLP = GLP (Homo sapiens, UniProt Q9H9B1); experiment: HMT selectivity panel; conditions: 50 µM compound
Procedure: as §1
experiments containing nucleosome.
G9a 5 core histone 0.05 mg/mL 1
GLP 5 core histone 0.05 mg/mL 1

SETD2 = SETD2 (Homo sapiens, UniProt Q9BYW2); experiment: HMT selectivity panel; conditions: SETD2, 50 µM compound
Source text: (§2) Assay conditions for selectivity experiments with a panel of histone
as §1

PRMT6 = PRMT6 (Homo sapiens, UniProt Q96LA8); experiment: HMT selectivity panel; conditions: PRMT6, 50 µM compound
Source text: as §1

NSD1 = NSD1 (Homo sapiens, UniProt Q96L73); experiment: HMT selectivity panel; conditions: NSD1, 50 µM compound
Source text: as §1

PRMT3 = PRMT3 (Homo sapiens, UniProt O60678); experiment: HMT selectivity panel; conditions: PRMT3, 50 µM compound
Source text: as §1

[4] = tested on: luciferase-expressing MV4;11 cells in NSG mice; experiment: MV4;11 xenotransplantation bioimaging model (bioluminescence); type: in vivo, mouse; conditions: for average radiance: individual mice, 30 mg/kg q.d. i.p.
NSD3 = NSD3 (Homo sapiens, UniProt Q9BZ95); experiment: HMT selectivity panel; conditions: NSD3, 50 µM compound
Source text: as §1

SUV39H2 = SUV39H2 (Homo sapiens, UniProt Q9H5I1); experiment: HMT selectivity panel; conditions: SUV39H2, 50 µM compound
Source text: as §2, §1

SET7/9 = SET7/9 (Homo sapiens, UniProt Q8WTS6); experiment: HMT selectivity panel; conditions: SET7/9, 50 µM compound
Source text: as §2, §1

PRDM9 = PRDM9 (Homo sapiens, UniProt Q9NQV7); experiment: HMT selectivity panel; conditions: PRDM9, 50 µM compound
Source text: as §1

PRMT4 = PRMT4 (Homo sapiens, UniProt Q86X55); experiment: HMT selectivity panel; conditions: PRMT4, 50 µM compound
Source text: as §1

[5] = tested on: panel of 20 histone methyltransferases; experiment: Panel of 20 histone methyltransferases as a whole; conditions: 50 µM
Procedure: as §1
experiments containing nucleosome.
G9a 5 core histone 0.05 mg/mL 1
GLP 5 core histone 0.05 mg/mL 1

K562 cells = experiment: Flow cytometry of CD11B expression (differentiation); type: cell-based, human; conditions: for K562 % CD11B+ cells: 7 days
Procedure: In addition, 1 × 10^5 cells per sample were stained with Zombie Aqua™ dye (1:100 dilution) for 15 min using the Zombie Aqua™ Fixable Viability Kit (Zombie Aqua™ Fixable Viability Kit, Biolegend®) […] and then for 30 min with an anti-CD11B-PE antibody (982606, ICRF44, Biolegend®) or anti-CD11B-Pacific Blue (101224, BD BioLegend) antibody at 1:50 dilution, according to the No-wash Sequential Staining Protocol described by the manufacturer (BioLegend, Zombie Aqua Fixable Viability Kit). Cells were washed twice with 500 µL PBS containing 1% FBS and resuspended in 200 µL PBS with 1% FBS.

SMYD1 = SMYD1 (Homo sapiens, UniProt Q8NB12); experiment: HMT selectivity panel; conditions: SMYD1, 50 µM compound
Source text: as §2, §1

DOT1L = DOT1L (Homo sapiens, UniProt Q8TEK3); experiment: HMT selectivity panel; conditions: 50 µM compound
Procedure: as §1
experiments containing nucleosome.
G9a 5 core histone 0.05 mg/mL 1
GLP 5 core histone 0.05 mg/mL 1

[6] = target: ASH1L (amino acids 2046–2330) (Homo sapiens, UniProt Q9NR48); experiment: Histone methyltransferase (HMT) assay
Procedure: The mixtures of ASH1L and compounds were incubated at room temperature for 1 h. […] The reaction was continued for 1 h at room temperature, then quenched by addition of 10% Trichloroacetic acid (TCA) and then transferred to 96-well filter plates (Millipore sigma, MSFBN6B), washed twice with 10% TCA and then once with 200-proof ethanol. After extensive drying, 70 µL of Microscint-O scintillant (PerkinElmer) was added and counts per minute (CPM) were measured using a MicroBeta microplate counter (PerkinElmer). Titration curves were plotted using Prism (GraphPad Prism 8.0.0.) and IC50 values were calculated.

[7] = individual mice, after last day of treatment, 30 mg/kg q.d. i.p., 30 mg/kg

NSD1, sequence (Q96L73 whole entry, species assumed): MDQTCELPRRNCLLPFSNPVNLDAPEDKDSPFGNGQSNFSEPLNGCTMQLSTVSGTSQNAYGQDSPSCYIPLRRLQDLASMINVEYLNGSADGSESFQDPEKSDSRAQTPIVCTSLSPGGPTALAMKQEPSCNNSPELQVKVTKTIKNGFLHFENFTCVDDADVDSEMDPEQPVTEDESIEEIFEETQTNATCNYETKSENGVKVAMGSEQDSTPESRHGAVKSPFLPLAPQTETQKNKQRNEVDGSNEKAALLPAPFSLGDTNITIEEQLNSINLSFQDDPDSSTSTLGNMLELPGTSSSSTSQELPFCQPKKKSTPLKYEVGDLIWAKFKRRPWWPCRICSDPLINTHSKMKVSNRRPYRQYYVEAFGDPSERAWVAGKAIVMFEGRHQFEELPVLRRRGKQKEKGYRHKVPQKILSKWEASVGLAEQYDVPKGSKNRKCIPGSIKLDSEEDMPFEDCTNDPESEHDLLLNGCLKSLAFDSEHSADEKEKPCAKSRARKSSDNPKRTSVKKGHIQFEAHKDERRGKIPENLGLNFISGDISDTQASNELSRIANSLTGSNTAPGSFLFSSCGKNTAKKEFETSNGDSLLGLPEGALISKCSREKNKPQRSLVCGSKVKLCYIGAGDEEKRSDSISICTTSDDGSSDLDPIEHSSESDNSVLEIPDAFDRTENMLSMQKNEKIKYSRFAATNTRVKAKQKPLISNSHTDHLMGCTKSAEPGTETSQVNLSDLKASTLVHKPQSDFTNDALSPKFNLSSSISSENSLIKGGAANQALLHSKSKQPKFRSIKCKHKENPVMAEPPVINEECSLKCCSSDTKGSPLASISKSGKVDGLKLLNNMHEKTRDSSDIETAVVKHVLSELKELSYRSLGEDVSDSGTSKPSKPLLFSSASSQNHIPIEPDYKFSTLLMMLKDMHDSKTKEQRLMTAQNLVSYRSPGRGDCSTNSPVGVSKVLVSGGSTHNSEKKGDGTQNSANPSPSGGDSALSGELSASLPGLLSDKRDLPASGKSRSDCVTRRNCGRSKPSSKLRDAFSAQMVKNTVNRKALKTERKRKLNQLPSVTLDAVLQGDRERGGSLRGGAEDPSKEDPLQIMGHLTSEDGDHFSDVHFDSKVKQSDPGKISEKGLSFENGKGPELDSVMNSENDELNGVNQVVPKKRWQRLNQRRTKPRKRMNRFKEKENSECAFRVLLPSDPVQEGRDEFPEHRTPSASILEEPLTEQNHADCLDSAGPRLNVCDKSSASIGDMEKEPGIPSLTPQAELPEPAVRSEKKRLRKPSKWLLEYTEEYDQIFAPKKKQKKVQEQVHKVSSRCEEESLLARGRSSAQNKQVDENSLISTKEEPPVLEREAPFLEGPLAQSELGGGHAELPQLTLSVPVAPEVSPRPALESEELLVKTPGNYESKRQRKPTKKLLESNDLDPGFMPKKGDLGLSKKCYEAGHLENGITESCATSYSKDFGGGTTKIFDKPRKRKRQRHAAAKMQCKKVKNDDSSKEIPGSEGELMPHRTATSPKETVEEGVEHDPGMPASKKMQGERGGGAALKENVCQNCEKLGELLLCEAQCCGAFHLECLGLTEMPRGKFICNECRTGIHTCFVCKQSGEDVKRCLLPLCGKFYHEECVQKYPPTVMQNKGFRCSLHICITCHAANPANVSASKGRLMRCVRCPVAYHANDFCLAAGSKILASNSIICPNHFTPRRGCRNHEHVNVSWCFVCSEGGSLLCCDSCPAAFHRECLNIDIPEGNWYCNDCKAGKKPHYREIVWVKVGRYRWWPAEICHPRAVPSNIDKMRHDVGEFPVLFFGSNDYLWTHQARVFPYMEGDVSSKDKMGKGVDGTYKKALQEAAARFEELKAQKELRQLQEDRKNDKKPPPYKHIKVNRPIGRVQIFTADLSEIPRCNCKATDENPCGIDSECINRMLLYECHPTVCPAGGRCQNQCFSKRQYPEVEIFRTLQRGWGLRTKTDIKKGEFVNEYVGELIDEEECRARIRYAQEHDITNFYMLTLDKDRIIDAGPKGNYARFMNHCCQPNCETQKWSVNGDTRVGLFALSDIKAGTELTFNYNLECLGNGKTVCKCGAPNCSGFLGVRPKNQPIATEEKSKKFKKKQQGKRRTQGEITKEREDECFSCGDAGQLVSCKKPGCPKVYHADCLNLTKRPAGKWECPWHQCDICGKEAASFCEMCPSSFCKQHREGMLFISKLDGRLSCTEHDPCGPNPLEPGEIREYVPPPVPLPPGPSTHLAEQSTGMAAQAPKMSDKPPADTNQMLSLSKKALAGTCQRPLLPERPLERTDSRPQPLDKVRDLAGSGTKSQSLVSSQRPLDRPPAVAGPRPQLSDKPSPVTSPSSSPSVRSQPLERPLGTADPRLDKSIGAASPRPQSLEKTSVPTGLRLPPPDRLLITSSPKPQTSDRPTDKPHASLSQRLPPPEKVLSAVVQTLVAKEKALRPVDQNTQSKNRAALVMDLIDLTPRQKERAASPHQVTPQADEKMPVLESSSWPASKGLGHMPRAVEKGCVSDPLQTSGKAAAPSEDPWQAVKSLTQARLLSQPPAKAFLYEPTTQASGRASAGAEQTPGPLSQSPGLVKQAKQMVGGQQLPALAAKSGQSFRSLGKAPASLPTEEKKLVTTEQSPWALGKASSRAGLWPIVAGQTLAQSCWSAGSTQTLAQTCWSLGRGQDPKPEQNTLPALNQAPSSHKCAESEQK
PRDM9, sequence (Q9NQV7 whole entry, species assumed): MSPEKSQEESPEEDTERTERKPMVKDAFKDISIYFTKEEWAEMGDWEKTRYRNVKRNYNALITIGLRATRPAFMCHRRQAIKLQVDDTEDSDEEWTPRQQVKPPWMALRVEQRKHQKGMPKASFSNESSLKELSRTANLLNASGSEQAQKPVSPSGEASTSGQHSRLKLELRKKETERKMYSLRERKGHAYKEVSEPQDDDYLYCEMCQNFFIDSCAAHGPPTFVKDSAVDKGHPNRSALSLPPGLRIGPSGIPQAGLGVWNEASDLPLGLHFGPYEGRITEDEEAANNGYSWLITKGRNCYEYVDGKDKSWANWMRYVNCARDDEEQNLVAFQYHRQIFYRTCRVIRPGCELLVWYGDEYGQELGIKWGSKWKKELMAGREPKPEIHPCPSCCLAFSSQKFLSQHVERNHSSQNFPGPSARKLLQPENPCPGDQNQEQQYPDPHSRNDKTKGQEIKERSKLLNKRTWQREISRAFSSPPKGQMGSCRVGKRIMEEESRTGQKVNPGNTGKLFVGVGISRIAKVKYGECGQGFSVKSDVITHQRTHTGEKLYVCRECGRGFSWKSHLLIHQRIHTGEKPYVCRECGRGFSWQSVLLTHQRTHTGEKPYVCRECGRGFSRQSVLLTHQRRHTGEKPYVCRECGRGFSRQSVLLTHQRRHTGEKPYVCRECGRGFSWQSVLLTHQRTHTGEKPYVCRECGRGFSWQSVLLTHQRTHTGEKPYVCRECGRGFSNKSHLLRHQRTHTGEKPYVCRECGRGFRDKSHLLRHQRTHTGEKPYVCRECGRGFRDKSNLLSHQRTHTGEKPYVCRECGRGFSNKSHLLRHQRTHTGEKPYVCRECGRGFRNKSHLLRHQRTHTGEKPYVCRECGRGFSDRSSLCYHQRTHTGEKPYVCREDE
DOT1L, sequence (Q8TEK3 whole entry, species assumed, the tested form may be a part): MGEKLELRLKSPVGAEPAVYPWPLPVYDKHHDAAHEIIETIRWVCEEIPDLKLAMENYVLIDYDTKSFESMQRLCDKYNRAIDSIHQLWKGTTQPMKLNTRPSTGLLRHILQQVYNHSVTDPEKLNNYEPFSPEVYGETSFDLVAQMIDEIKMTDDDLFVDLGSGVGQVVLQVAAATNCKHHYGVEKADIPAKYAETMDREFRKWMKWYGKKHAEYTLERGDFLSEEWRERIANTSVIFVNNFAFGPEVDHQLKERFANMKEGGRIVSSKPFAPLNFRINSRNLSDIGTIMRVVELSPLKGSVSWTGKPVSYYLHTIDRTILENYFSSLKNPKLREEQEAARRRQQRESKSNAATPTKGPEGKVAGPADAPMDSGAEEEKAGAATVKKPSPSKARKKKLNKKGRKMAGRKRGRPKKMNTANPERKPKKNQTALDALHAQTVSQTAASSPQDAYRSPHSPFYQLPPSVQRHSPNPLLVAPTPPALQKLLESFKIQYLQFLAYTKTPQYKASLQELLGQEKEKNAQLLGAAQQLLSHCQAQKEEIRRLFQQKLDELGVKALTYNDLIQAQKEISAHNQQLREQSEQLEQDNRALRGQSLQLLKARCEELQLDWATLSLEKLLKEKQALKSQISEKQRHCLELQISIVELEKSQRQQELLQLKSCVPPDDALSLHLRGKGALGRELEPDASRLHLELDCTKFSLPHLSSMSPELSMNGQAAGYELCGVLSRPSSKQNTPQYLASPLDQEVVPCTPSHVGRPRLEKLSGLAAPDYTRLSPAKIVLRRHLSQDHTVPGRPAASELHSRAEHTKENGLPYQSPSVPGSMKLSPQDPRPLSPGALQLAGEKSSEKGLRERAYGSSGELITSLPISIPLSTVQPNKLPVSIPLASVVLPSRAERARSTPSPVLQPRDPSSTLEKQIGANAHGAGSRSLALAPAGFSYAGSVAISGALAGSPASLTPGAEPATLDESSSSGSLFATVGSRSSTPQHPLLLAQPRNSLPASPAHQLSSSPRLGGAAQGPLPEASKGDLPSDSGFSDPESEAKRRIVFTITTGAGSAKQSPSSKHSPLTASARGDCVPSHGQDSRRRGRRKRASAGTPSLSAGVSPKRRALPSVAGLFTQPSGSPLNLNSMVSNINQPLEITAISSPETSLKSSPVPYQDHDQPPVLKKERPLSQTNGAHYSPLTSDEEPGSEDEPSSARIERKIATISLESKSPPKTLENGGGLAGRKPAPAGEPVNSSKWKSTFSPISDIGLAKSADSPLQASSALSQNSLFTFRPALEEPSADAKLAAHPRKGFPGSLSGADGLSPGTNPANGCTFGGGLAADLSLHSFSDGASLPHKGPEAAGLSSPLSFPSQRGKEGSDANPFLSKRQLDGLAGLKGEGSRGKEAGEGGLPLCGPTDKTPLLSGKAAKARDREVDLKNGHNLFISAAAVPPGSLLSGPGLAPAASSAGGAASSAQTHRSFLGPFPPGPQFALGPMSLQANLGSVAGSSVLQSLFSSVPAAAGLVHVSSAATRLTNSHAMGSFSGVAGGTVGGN

CN1CC(C(=O)NCc2ccc3c(-c4cccc(C(N)=S)c4)cn(C4CCN(S(=O)(=O)C(F)(F)F)CC4)c3c2)C1 [AS-99]
hCD45+ % in PB [1, 7]: 6.6% and 0.44% and 0.41% and 0.23% and 0.21% and 0.19% | hCD45+ % in spleen [1, 7]: 2.39% and 0.79% and 1.14% and 1.53% and 0.61% and 1.12% and 0.041% | level of leukemic blasts (human CD45+ cells) in peripheral blood and spleen ([1]; last day of treatment): significantly lower level | inhibition in a panel of representative kinases [2]: does not inhibit strongly; also recorded: did not show substantial inhibition | effect on colony number or morphology [3]: no effect on colony number or morphology | colony counts ([3]; 3 uM): 70 and 68 | colony counts ([3]; 6 uM): 86 and 64 | activity at 50 µM (NSD2): 92.1% | % activity (NSD2; 50 µM): 101.756% | activity at 50 µM (G9a): 90.9% | % activity (G9a; 50 µM): 91.9579% | activity at 50 µM (GLP): 101% | % activity (GLP; 50 µM): 119.954% | activity at 50 µM (SETD2): 101% | % activity (SETD2; 50 µM): 99.1882% | activity at 50 µM (PRMT6): 105% | % activity (PRMT6; 50 µM): 107.332% | activity at 50 µM (NSD1): 112% | % activity (NSD1; 50 µM): 113.763% | activity at 50 µM (PRMT3): 106% | % activity (PRMT3; 50 µM): 114.852% | reduction in the bioluminescence signal versus vehicle ([4]; 30 mg/kg, i.p., q.d., 14 days): 65% | average radiance ([4]; day 6 after transplantation (start of treatment)): 6110 p/s/cm2/sr and 4700 p/s/cm2/sr and 4630 p/s/cm2/sr and 3760 p/s/cm2/sr and 10800 p/s/cm2/sr and 52500 p/s/cm2/sr and 8750 p/s/cm2/sr | average radiance ([4]; day 13 after transplantation): 199000 p/s/cm2/sr and 275000 p/s/cm2/sr and 78900 p/s/cm2/sr and 62500 p/s/cm2/sr and 231000 p/s/cm2/sr and 5680 p/s/cm2/sr and 144000 p/s/cm2/sr | average radiance ([4]; day 19 after transplantation (last day of treatment)): 1090000 p/s/cm2/sr (2×) and 1280000 p/s/cm2/sr and 524000 p/s/cm2/sr and 386000 p/s/cm2/sr and 8110 p/s/cm2/sr and 9660 p/s/cm2/sr | activity at 50 µM (NSD3): 145% | % activity (NSD3; 50 µM): 128.837% | activity at 50 µM (SUV39H2): 88.7% | % activity (SUV39H2; 50 µM): 78.6146% | activity at 50 µM (SET7/9): 81.7% | % activity (SET7/9; 50 µM): 85.3173% | activity at 50 µM (PRDM9): 96.8% | % activity (PRDM9; 50 µM): 100.979% | activity at 50 µM (PRMT4): 103% | % activity (PRMT4; 50 µM): 110.439% | inhibition of the tested HMTs [5]: no significant inhibition | K562 % CD11B+ cells (K562 cells; 2 uM): 0.43% and 0.58% and 0.36% | K562 % CD11B+ cells (K562 cells; 4 uM): 0.34% and 0.52% and 0.4% | K562 % CD11B+ cells (K562 cells; 6 uM): 0.56% and 0.39% and 0.38% | K562 % CD11B+ cells (K562 cells; 8 uM): 0.73% and 0.97% and 0.76% | differentiation effects in K562 (K562 cells; control leukemia cell line): not observed | activity at 50 µM (SMYD1): 81.1% | % activity (SMYD1; 50 µM): 68.7304% | activity at 50 µM (DOT1L): 107% | % activity (DOT1L; 50 µM): 93.8212%

CN1CC(C(=O)NCc2ccc3c(-c4cccc(C(N)=O)c4)cn(C4CCN(S(=O)(=O)C(F)(F)F)CC4)c3c2)C1 [AS-nc]
reduced inhibitory activity (thioamide of AS-99 replaced with amide) [6]: ~ 100 fold | IC50 ([6]; IC50, HMT assay with nucleosomes as substrate, mean ± s.d. from two independent experiments): 72 µM | % Ash1L activity ([6]; Log[compound] (M) -3): 8.534% and 3.267% | % Ash1L activity ([6]; Log[compound] (M) -3.47712): 48.6163% and 37.7254% | % Ash1L activity ([6]; Log[compound] (M) -3.95424): 56.4006% and 63.2923% | % Ash1L activity ([6]; Log[compound] (M) -4.43136): 67.1309% and 48.4913% | % Ash1L activity ([6]; Log[compound] (M) -4.90849): 72.7906% and 62.8102% | % Ash1L activity ([6]; Log[compound] (M) -5.38561): 70.7731% and 79.0573% | % Ash1L activity ([6]; Log[compound] (M) -5.86273): 90.948% and 119.086%
